From patent US20130345254A1, “CYCLOHEXANE SUBSTITUTED AMINO CYCLOPENTANE DERIVATIVES AS USEFUL CCR2 ANTAGONISTS” (priority 2011, published 2013)

Biological target: T1, human CCR2 (Homo sapiens, UniProt P41597)
T1 construct: expressed in transfected cells; host or cells: Ba/F3 cells (membrane preparation)
Test: CCR2 membrane binding assay (SPA, 125I-rhMCP-1 competition)
Conditions: membranes from Ba/F3 cells transfected with human CCR2; 0.03 nM 125I-rhMCP-1; 4 h room temperature
Description: The radio-ligand binding assay was done using scintillation proximity assay (SPA) technology. Briefly, membranes (1 μg per assay point) from Ba/F3 cells transfected with human CCR2, and wheat germ agglutinin-coated SPA beads (80 μg per point; Amersham, Arlington Heights, Ill.), were pre-incubated for 30 min at room temperature in CCR2 buffer (50 mM HEPES (pH=7.4), 10 mM MgCl2, 10 mM NaCl, 1 mM CaCL2, 0.1% BSA, 10 μg/ml Saponin). At this point pre-bound SPA bead, membrane complex was incubated at room temperature for 4 h with varying concentrations of punitive CCR2 antagonists (in 1% DMSO, final) and 0.03 nM ^125I-rhMCP-1 in CCR2 Buffer (S.A. 2200 Ci/mmol, PerkinElmer Life and Analytical Science, Boston, Mass.; NEX332). Binding competition was measured using a 1450 Microbeta Trilux counter (Wallac, Gaithersburg, Md.). Binding constants (IC50 and slope) were calculated using GraphPad Prism software (GraphPad Software, Inc., La Jolla Calif.).

T1 sequence (P41597 whole entry): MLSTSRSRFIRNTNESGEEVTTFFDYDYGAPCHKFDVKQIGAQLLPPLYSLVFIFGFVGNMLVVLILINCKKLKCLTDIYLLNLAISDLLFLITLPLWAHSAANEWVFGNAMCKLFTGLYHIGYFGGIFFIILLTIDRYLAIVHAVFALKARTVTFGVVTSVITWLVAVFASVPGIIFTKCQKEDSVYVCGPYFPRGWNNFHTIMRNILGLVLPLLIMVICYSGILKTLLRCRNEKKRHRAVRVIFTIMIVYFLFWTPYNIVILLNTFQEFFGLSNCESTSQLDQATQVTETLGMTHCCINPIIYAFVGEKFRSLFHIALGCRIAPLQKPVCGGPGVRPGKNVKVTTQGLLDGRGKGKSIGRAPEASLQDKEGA

| IC50 [nM] | Structure (SMILES) |
| --- | --- |
| 2100 | CC=C1CCC(N[C@@H]2CC[C@H](C(=O)NCc3cc(C(F)(F)F)cc(C(F)(F)F)c3)C2)CC1 (some centres unmarked) [Compound 1] |
| 9 | CC=C1CCC(N[C@@H]2CC[C@@](C(=O)N3CCc4ncc(C(F)(F)F)cc4C3)(C(C)C)C2)CC1 (some centres unmarked) [Compound 2] |
